Laboratory results as given in patent US11149047B2, “Aryl imidazoles for treatment of cancer” (Aptose Biosciences Inc., priority 2017, dated 2021).

Tests used:
Format in all cases: cell-based
[1] = tested on: PEO4 and PEO1 ovarian cancer cell lines; assay: Sensitivity of BRCA2-proficient and -deficient cells; conditions: FIG. 3D
Method: Cells were plated and treated with the indicated drugs in 96-well plates for 5 days. Cell viability was measured using CellTiter 96 AQueous one solution (MTS) cell proliferation assay purchased from Promega, and IC50 values were calculated using GraphPad Prism 6 Software.
The finding that COMPOUND I produced DNA damage led to the investigation of whether cells deficient in homologous recombination were hypersensitive to this drug. The hypothesis that there would be synthetic lethality between COMPOUND I and BRCA1 deficiency using isogenic pairs of BRCA1-proficient and -deficient human cell lines was tested. […] The conclusion that BRCA1-deficient cells are hypersensitive to COMPOUND I was further supported by the results obtained in MCF7 E7 cells in which BRCA1 expression is stably knocked down by the expression of an shRNAi. […] Whether BRCA2-deficient cells are more sensitive to COMPOUND I was tested using the BRCA2-proficient and BRCA2-deficient ovarian cancer cell lines, PEO4 and PEO1, respectively. PEO1 is BRCA2-deficient and sensitive to cisplatin and a poly(ADP-ribose) polymerase inhibitor AG14361. PEO4 was derived from ascites at the time of relapse with cisplatin resistance and contains a secondary mutation that restores BRCA2 function. […] Thus, loss of either BRCA1 or BRCA2 function renders malignant cells hypersensitive to COMPOUND I.

GRANTA-519 = assay: Cytotoxicity study (MTS), 5 days; conditions: Homo sapiens, MCL
Method: (§1) EOL-1, GRANTA-519, Jeko-1, Jurkat, Molm-13, NOMO-1, SKM-1, and SU-DHL-6 were obtained from Leibniz-Institut DSMZ. HL-60, KG-1, Mino, MV4-11, Raji, and THP-1 were obtained from ATCC. HEL92.1.7 were obtained from the European Collection of Authenticated Cell Cultures and Ramos cells were a gift from Dr. M. Andreeff (MD Anderson Cancer Center, Houston, Tex.). All cells were cultured in complete media as per the manufacturer's instructions. Early passage cells were collected and frozen within 1 month of receipt from the manufacturer. All experiments were performed on early passage cells within 6 weeks of thawing. MycoScope Mycoplasma Detection Kit (Genlantis catalog #MY01050) was used to screen for potential contamination every 6 months. Peripheral blood mononuclear cells (PBMC) were isolated from fresh healthy donor blood using Ficoll-Paque PLUS (GE Healthcare, catalog #17-1440-02). For synthesis of COMPOUND I free base, 10-phenanthroline-5,6-dione (1.2 equivalents), acetic acid (22 volumes), 2-methyl-5-fluoroindole-3-carboxaldehyde (1.0 equivalents), and ammonium acetate (15 equivalents) were reacted under medium agitation while heated at 95±5° C. for 3 to 7 hours. The reaction was cooled to between 20° C. and 25° C., filtered, rinsed with acetic acid and ethanol, and dried with N2 purge, followed by a wash with 2:1 ethanol:water at 65° C. for 4 hours, cooling to 20° C. to 25° C., filtration, rinsing with 2:1 ethanol:water and EtOAc, and then dried with N2 purge. The purity by HPLC was 99.5%, and the structural identity was confirmed by FT-IR, ^1HNMR, ^13C NMR, and LC/MS. For Fe(COMPOUND I)3 synthesis, five molar equivalents of ferrous ion FeSO4 in water was added to COMPOUND I dissolved in ethanol. The deep red precipitate produced, Fe(COMPOUND I)3, was collected and dissolved in DMSO and characterized by HPLC and mass spectrometry as >95% pure. CX-5461 (7) was purchased from MedChem Express (catalog #HY-13323).
(§2) Cells were plated and treated with vehicle DMSO or COMPOUND I (10 concentrations) in 96-well plates for 5 days at 37° C. and 5% CO2. Cell viability was measured using CellTiter 96 AQueous one solution (MTS) cell proliferation assay (Promega, catalog #G3581), and IC50 values were calculated using GraphPad Prism 7 software.

HEL92.1.7 = assay: Cytotoxicity study (MTS), 5 days; conditions: Homo sapiens, HEL 92.1.7; AML
Method: as §1, §2

Raji = assay: Cytotoxicity study (MTS), 5 days; conditions: Homo sapiens, Burkitt's
Method: as §1, §2

[2] = tested on: protein levels in MV4-11 cells; assay: Reverse-phase protein array (RPPA) analysis; conditions: 500 nmol/L, 6 h vs vehicle
Method: MV4-11 cells were treated as for RNA sequencing (RNA-seq) analysis and whole-cell extracts were prepared for Western blotting. Samples were processed at MD Anderson Cancer Center reverse-phase protein array (RPPA) core facility (details at https://www.mdanderson.org/research/research-resources/core-facilities/functional-proteomics-rppa-core/rppa-process.html). Protein expression levels were averaged for 3 replicates and heatmaps were drawn using GraphPad Prism 7.
To examine the effect of COMPOUND I on protein expression, MV4-11 cells were treated as above and analyzed by RPPA microarray to quantify >300 total and post-translationally modified proteins. […] Of note, there was an increase of cleaved caspase-7, which is indicative of apoptosis. GO analysis of the differentially expressed proteins was performed utilizing the Broad Molecular Signatures database. Significant GO terms included cell death and G1-S cell-cycle arrest pathways, a formal description of G0-G1 arrest, and consistent with the cell-cycle effects detected by flow cytometry and the RNA-seq analyses (FIG. 18C). An increase in E2F1, TP53, γH2AX, CHEK1 phos-S296, and CHEK2 phos-T68 supported the concept that DNA damage pathways are triggered by COMPOUND I treatment. In addition, increases in XBP1, HSPA5, and MAPK14 (p38) phos-T180/182 were observed, indicating ER or cellular stress ([…]; ref 15). DDR pathways can also signal through the MAPK pathway activating MAPK14 and MAPK8 (JNK), and cross-talk between the DDR pathway and ER stress is a well-established phenomenon although it is unclear which pathway represents the initiating event. A significant portion of the differentially expressed proteins and mRNAs are target genes of MYC oncoprotein, which is known to be an integral part of both cell-cycle and apoptotic pathway regulation.

Structure (SMILES): Cc1[nH]c2ccc(F)cc2c1-c1nc2c3cccnc3c3ncccc3c2[nH]1 [COMPOUND I, 2-(5-fluoro-2-methyl-1H-indol-3-yl)-1H-imidazo[4,5-f][1,10]phenanthroline]
- effect of restoration of BRCA2 function (PEO4 vs PEO1) [1]: increased resistance
- IC50 (GRANTA-519): 0.082 µM
- IC50 (HEL92.1.7): 1.75 µM
- IC50 (Raji): 0.1 µM
- fold change ACC_pS79 [2]: 1.302 fold
- fold change ADAR1 [2]: 1.308 fold
- fold change Bad_pS112 [2]: 1.55 fold
- fold change BiP-GRP78 [2]: 1.29 fold
- fold change CD29 [2]: 1.291 fold
- fold change Caspase-3 [2]: 2.382 fold
- fold change Caspase-7-cleaved [2]: 1.671 fold
- fold change Chk1 [2]: 1.433 fold
- fold change Chk2_pT68 [2]: 1.312 fold
- fold change Cyclin-B1 [2]: 0.5944 fold
- fold change Cyclin-E1 [2]: 1.361 fold
- fold change DM-Histone-H3 [2]: 2.008 fold
- fold change DM-K9-Histone-H3 [2]: 2.003 fold
- fold change E2F1 [2]: 1.423 fold
- fold change Ets-1 [2]: 0.6034 fold
- fold change H2AX_pS140 [2]: 4.196 fold
- fold change Hif-1-alpha [2]: 1.482 fold
- fold change Histone-H3 [2]: 5.083 fold
- fold change N-Ras [2]: 1.397 fold
- fold change NDRG1_pT346 [2]: 0.4566 fold
- fold change PAI-1 [2]: 1.257 fold
- fold change PAR [2]: 2.707 fold
- fold change PLK1 [2]: 0.4946 fold
- fold change Pdcd-1L1 [2]: 1.262 fold
- fold change Rb_pS807_S811 [2]: 0.6486 fold
- fold change S6_pS240_S244 [2]: 0.6467 fold
- fold change Syk [2]: 1.433 fold
- fold change Ubq-Histone-H2B [2]: 1.375 fold
- fold change XBP-1 [2]: 1.369 fold
- fold change p38_pT180_Y182 [2]: 2.022 fold
- fold change p53 [2]: 1.288 fold
